Reference: patent US9040501B2, “Compositions and methods for treating cancer” (Eisai Inc., priority 2009, dated 2015)
Like-named read-outs stand apart in the source and are kept apart here.

What was measured:
cytidine deaminase (CDA) [1] = target: T1, cytidine deaminase (CDA) (Homo sapiens (Human), UniProt P32320); test: Effect of ER-876437 on the half-life of gemcitabine in the presence of CDA in Tris-HCl buffer at 37° C.; format: biochemical
Protocol: This Example employed a Phenomenex Luna C18(2) HPLC column (100 Å 4.6×250 mm 5 μm). The solvent delivery system employed an HPLC quaternary pump, low pressure mixing. An autosampler having a variable loop, 0.1 to 100 μL range and temperature controlled thermostat was used. The UV detector can employ a dual wavelength detector, a diode array detector, a variable wavelength detector or equivalent, and can be recorded using chromatographic software (e.g., Waters Empower 2 Build 2154, Agilent ChemStation software version A.09.03 or higher for HPLC or equivalent). The analytical balance employed was capable of weighing ±0.1 mg. Degassed HPLC grade water and degassed HPLC grade acetonitrile were used as solvents for the mobile phases.
Gemcitabine Standard Control: 0.2 mM gemcitabine control was prepared by weighing […] of gemcitabine in a 10 mL volumetric flask. […] Solution was labeled as gemcitabine stock solution.

cytidine deaminase (CDA) [2] = target: T1, cytidine deaminase (CDA); test: Effect of ER-876437 on the half-life of decitabine in the presence of CDA in Tris-HCl buffer at 37° C.; format: biochemical
Protocol: The solvent delivery system employed an HPLC quaternary pump, low pressure mixing. An autosampler having a variable loop, 0.1 to 100 μL range and temperature controlled thermostat was used. […] Degassed HPLC grade water and degassed HPLC grade acetonitrile were used as solvents for the mobile phases. […] [table]

[3] = Stability in simulated gastric fluid at 37° C. (HPLC); format: physicochemical
Text: […]. See Kararli, T. T. Comparison of the GI anatomy, physiology, and biochemistry of humans and commonly used laboratory animals. BioPharm & DrugDispos. 16:351-380, 1995, which is hereby wholly incorporated by reference. The gastric pH in fasted monkeys has been reported to have a similar range of 1-3. See Kondo, H. et al. Characteristics of the gastric pH profiles of unfed and fed cynomolgus monkeys as pharmaceutical product development subjects. BioPharm & DrugDispos. 24:45-51, 2003, which is hereby wholly incorporated by reference.
Materials: Simulated gastric fluid (SGF) was prepared by mixing the following into 100 mL of HPLC grade (or purified) water: 200 mg of sodium chloride and 1.87 mL of a 37.52% HCl stock solution.
The HPLC analyses were conducted using a Waters UPLC solvent delivery system with Corona CAD detection. The HPLC Column (Waters Atlantis HHS T3 2.1×100 mm, 1.8 um) was maintained at 40° C. and preequilibrated with a solution containing 98% water and 2% acetonitrile. The temperature controlled auto-sampler was maintained at 37° C. The flow rate for the Water/MeCN mobile phase was 0.65 mL/min, with a gradient following sample injection (5 μL) as follows: […]
The Water/MeCN mobile phase was applied to the column with the above described flow rate and gradient and the HPLC chromatograms were collected. After 3.5 minutes, the column was reequilibrated with 98% water/2% MeCN for 1.5 minutes.

[4] = Pharmacokinetics in mice after IV and PO administrations; format: in vivo, male BALB-c mice; settings: for concentration at 0.167 hr / concentration at 0.5 hr / concentration at 1 hr / concentration at 2 hr / concentration at 4 hr / concentration at 6 hr / concentration at 8 hr / concentration at 24 hr: read-out: Plasma concentrations
Protocol: […]. All doses were prepared in phosphate buffered saline (PBS) and were administered at a volume of 5 mL/kg. Five mice per group were used in these studies. Blood samples were taken serially from the tail vein of each mouse at predetermined timepoints. Blood samples from all mice in each group were pooled together prior to processing for plasma. The pooled blood samples were spun down within 30-60 minutes after withdrawal and the plasma was harvested and frozen for assay. After preparation and extraction the samples were assayed by LC/MS/MS.

[5] = male, BALB-c, mouse, plasma, 10 mg/kg IV
[6] = male, BALB-c, mouse, plasma, 10 mg/kg PO

T1 sequence (P32320 whole entry): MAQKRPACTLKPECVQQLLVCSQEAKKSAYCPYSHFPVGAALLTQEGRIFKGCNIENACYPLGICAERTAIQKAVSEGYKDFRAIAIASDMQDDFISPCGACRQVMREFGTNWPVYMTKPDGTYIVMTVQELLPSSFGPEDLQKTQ

SMILES: O=C1NCC=CCN1[C@@H]1O[C@H](CO)[C@@H](O)C1(F)F [ER-876437, 1-((2R,4R,5R)-3,3-difluoro-4-hydroxy-5-(hydroxymethyl)tetrahydrofuran-2-yl)-3,4-dihydro-1H-1,3-diazepin-2(7H)-one]
- gemcitabine remaining (cytidine deaminase (CDA) [1]; CDA plus ER-876437 in the incubation mixture, after 7 h): greater than 95%
- inhibition of the effect of CDA on T1/2 of gemcitabine (cytidine deaminase (CDA) [1]; Tris-HCl buffer at 37° C.): nearly completely inhibited
- levels of ER-876437 (cytidine deaminase (CDA) [1]; after 7 hours of exposure to CDA with gemcitabine): not affected
- inhibition of the effect of CDA on T1/2 of decitabine (cytidine deaminase (CDA) [2]; Tris-HCl buffer at 37° C.): nearly completely inhibited
- levels of ER-876437 (cytidine deaminase (CDA) [2]; after 12 hours exposure to CDA with decitabine): not affected
- % ER-876437 (peak retention time: 2.90 min) ([3]; SGF at 37° C., analysis time 0:00:30): 85.88%
- % ER-876437 (peak retention time: 2.90 min) ([3]; SGF at 37° C., analysis time 0:06:08): 85.72%
- % ER-876437 (peak retention time: 2.90 min) ([3]; SGF at 37° C., analysis time 0:11:45): 86.46%
- % ER-876437 (peak retention time: 2.90 min) ([3]; SGF at 37° C., analysis time 0:17:24): 86.38%
- % ER-876437 (peak retention time: 2.90 min) ([3]; SGF at 37° C., analysis time 0:23:02): 83.22%
- % ER-876437 (peak retention time: 2.90 min) ([3]; SGF at 37° C., analysis time 0:28:39): 83.48%
- % ER-876437 (peak retention time: 2.90 min) ([3]; SGF at 37° C., analysis time 0:34:17): 83.80%
- % ER-876437 (peak retention time: 2.90 min) ([3]; SGF at 37° C., analysis time 0:39:54): 84.16%
- % ER-876437 (peak retention time: 2.90 min) ([3]; SGF at 37° C., analysis time 0:45:32): 82.62%
- % ER-876437 (peak retention time: 2.90 min) ([3]; SGF at 37° C., analysis time 0:51:10): 82.41%
- % ER-876437 (peak retention time: 2.90 min) ([3]; SGF at 37° C., analysis time 0:56:47): 82.45%
- % ER-876437 (peak retention time: 2.90 min) ([3]; SGF at 37° C., analysis time 1:02:26): 82.45%
- % ER-876437 (peak retention time: 2.90 min) ([3]; SGF at 37° C., analysis time 1:08:04): 82.55%
- % ER-876437 (peak retention time: 2.90 min) ([3]; SGF at 37° C., analysis time 1:13:41): 83.11%
- % ER-876437 (peak retention time: 2.90 min) ([3]; SGF at 37° C., analysis time 1:19:19): 81.82%
- % ER-876437 (peak retention time: 2.90 min) ([3]; SGF at 37° C., analysis time 1:24:56): 81.24%
- % ER-876437 (peak retention time: 2.90 min) ([3]; SGF at 37° C., analysis time 1:30:33): 79.20%
- % ER-876437 (peak retention time: 2.90 min) ([3]; SGF at 37° C., analysis time 1:36:10): 79.14%
- % ER-876437 (peak retention time: 2.90 min) ([3]; SGF at 37° C., analysis time 1:41:47): 78.47%
- % ER-876437 (peak retention time: 2.90 min) ([3]; SGF at 37° C., analysis time 1:47:24): 77.88%
- % ER-876437 (peak retention time: 2.90 min) ([3]; SGF at 37° C., analysis time 1:53:02): 78.29%
- % ER-876437 (peak retention time: 2.90 min) ([3]; SGF at 37° C., analysis time 1:58:39): 78.56%
- % ER-876437 (peak retention time: 2.90 min) ([3]; SGF at 37° C., analysis time 2:04:16): 77.21%
- % ER-876437 (peak retention time: 2.90 min) ([3]; SGF at 37° C., analysis time 2:21:12): 76.06%
- % ER-876437 (peak retention time: 2.90 min) ([3]; SGF at 37° C., analysis time 2:26:50): 77.34%
- % ER-876437 (peak retention time: 2.90 min) ([3]; SGF at 37° C., analysis time 2:49:21): 75.34%
- % ER-876437 (peak retention time: 2.90 min) ([3]; SGF at 37° C., analysis time 3:17:30): 72.37%
- % ER-876437 (peak retention time: 2.90 min) ([3]; SGF at 37° C., analysis time 3:51:16): 50.13%
- % ER-876437 (peak retention time: 2.90 min) ([3]; SGF at 37° C., analysis time 4:19:26): 51.88%
- % ER-876437 (peak retention time: 2.90 min) ([3]; SGF at 37° C., analysis time 4:47:38): 48.95%
- % ER-876437 (peak retention time: 2.90 min) ([3]; SGF at 37° C., analysis time 5:21:25): 45.19%
- % ER-876437 (peak retention time: 2.90 min) ([3]; SGF at 37° C., analysis time 5:49:35): 47.44%
- % ER-876437 (peak retention time: 2.90 min) ([3]; SGF at 37° C., analysis time 6:17:45): 44.94%
- % ER-876437 (peak retention time: 2.90 min) ([3]; SGF at 37° C., analysis time 6:51:31): 43.29%
- % ER-876437 (peak retention time: 2.90 min) ([3]; SGF at 37° C., analysis time 7:19:40): 41.85%
- % ER-876437 (peak retention time: 2.90 min) ([3]; SGF at 37° C., analysis time 7:47:22): 41.72%
- % ER-876437 (peak retention time: 2.90 min) ([3]; SGF at 37° C., analysis time 8:21:11): 36.89%
- % ER-876437 (peak retention time: 2.90 min) ([3]; SGF at 37° C., analysis time 8:49:19): 37.52%
- % ER-876437 (peak retention time: 2.90 min) ([3]; SGF at 37° C., analysis time 9:17:30): 36.34%
- % ER-876437 (peak retention time: 2.90 min) ([3]; SGF at 37° C., analysis time 9:51:17): 34.61%
- % ER-876437 (peak retention time: 2.90 min) ([3]; SGF at 37° C., analysis time 10:19:29): 31.94%
- % ER-876437 (peak retention time: 2.90 min) ([3]; SGF at 37° C., analysis time 10:47:39): 32.33%
- % ER-876437 (peak retention time: 2.90 min) ([3]; SGF at 37° C., analysis time 11:15:53): 29.85%
- % ER-876437 (peak retention time: 2.90 min) ([3]; SGF at 37° C., analysis time 11:49:44): 29.94%
- % ER-876437 (peak retention time: 2.90 min) ([3]; SGF at 37° C., analysis time 12:17:54): 27.99%
- % ER-876437 (peak retention time: 2.90 min) ([3]; SGF at 37° C., analysis time 12:46:10): 27.39%
- % ER-876437 (peak retention time: 2.90 min) ([3]; SGF at 37° C., analysis time 13:20:01): 26.14%
- % ER-876437 (peak retention time: 2.90 min) ([3]; analysis time 0:00:00, initial sample in water): 92.18%
- half-life ([3]; simulated gastric fluid (pH 1.45) at 37° C.): 240 to 360 min
- t1/2 after PO administration relative to IV administration ([4]; 10 mg/kg): roughly 2.5 fold
- AUC0-∞ ([4]; 10 mg/kg IV): 13071 ng·h/mL
- AUC0-∞/D ([4]; 10 mg/kg IV): 1307 ng · hr/mL/D
- AUCExtrap ([4]; 10 mg/kg IV): 1.4%
- CL ([4]; 10 mg/kg IV): 0.77 L/kg/h
- dose-normalized exposures (AUC0-∞) ([4]; 10 mg/kg IV): 1310 ng·h/mL per mg/kg
- t1/2 ([4]; 10 mg/kg IV): 6.1 h
- AUC0-∞ ([4]; 10 mg/kg PO): 9499 ng·h/mL
- AUC0-∞/D ([4]; 10 mg/kg PO): 950 ng · hr/mL/D
- AUC(0-t) ([4]; 10 mg/kg PO): 8579 ng·h/mL
- AUCExtrap ([4]; 10 mg/kg PO): 9.7%
- t1/2 ([4]; 10 mg/kg PO): 16.3 h
- AUC(0-inf) [4, 5]: 13100 ng·h/mL
- clearance [4, 5]: 12.8 mL/min/kg
- half-life [4, 5]: 366 min
- concentration at 0.167 hr [4, 5]: 11800 ng/mL
- concentration at 0.5 hr [4, 5]: 7690 ng/mL
- concentration at 1 hr [4, 5]: 3470 ng/mL
- concentration at 2 hr [4, 5]: 1450 ng/mL
- concentration at 4 hr [4, 5]: 214 ng/mL
- concentration at 6 hr [4, 5]: 184 ng/mL
- concentration at 8 hr [4, 5]: 64 ng/mL
- concentration at 24 hr [4, 5]: 20 ng/mL
- AUC(0-t) ([4]; male, BALB-c, mouse, plasma, 10 mg/kg IV, read-out: AUC0-t): 12900 ng·h/mL
- Vd ([4]; male, BALB-c, mouse, plasma, 10 mg/kg IV, read-out: Vss): 1.64 L/kg
- AUC(0-inf) [4, 6]: 9500 ng·h/mL
- Cmax [4, 6]: 8600 ng/mL
- half-life [4, 6]: 978 min
- bioavailability ([4]; male, BALB-c, mouse, plasma, 10 mg/kg PO vs IV, calculated based on AUC0-t, read-out: F (bioavailability)): 66.5%
- concentration at 0.167 hr [4, 6]: 8600 ng/mL
- concentration at 0.5 hr [4, 6]: 3720 ng/mL
- concentration at 1 hr [4, 6]: 4180 ng/mL
- concentration at 2 hr [4, 6]: 1140 ng/mL
- concentration at 4 hr [4, 6]: 146 ng/mL
- concentration at 6 hr [4, 6]: 36 ng/mL
- concentration at 8 hr [4, 6]: 103 ng/mL
- concentration at 24 hr [4, 6]: 39 ng/mL
- AUC(0-t) ([4]; male, BALB-c, mouse, plasma, 10 mg/kg PO, read-out: AUC0-t): 8580 ng·h/mL
